Patent US20260200939A1, “MOLECULAR GLUE DEGRADER COMPOUNDS AND USES THEREOF” (Novartis AG, priority 2022, published 2026)

Tests used:
BRD4 short = biological target: T1, BRD4 short (Homo sapiens, UniProt O60885); test: BRD4 (short) degradation assay, Western blotting; type: cell-based
T1 construct: endogenous in cells; host or cells: HEK293T
Summary of the method: (§1)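 Cell lines were grown at 37° C with 5% CO2 (HEK293T and C33A in DMEM, A549 in F-12K, 22RV1, LNCaP and Mino in RPMI-1640, K562 and MV-4-11 in IMDM, all with 10% FBS). Lysates were BCA-normalized, then SDS/PAGE Western blots were probed with target-specific antibodies and read by IR680/IR800 fluorescent secondaries on Li-Cor.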

BRD4 long = biological target: T2, BRD4 long (Homo sapiens, UniProt O60885); test: BRD4 (long) degradation assay, Western blotting; type: cell-based
T2 construct: endogenous in cells; host or cells: HEK293T
Summary of the method: as §1

[1] = second value of cell, range with lower bound in nM and upper bound in μM
[2] = first value of cell, range with lower bound in nM and upper bound in μM
[3] = second value of cell (long/short)
[4] = first value of cell (long/short)

SMILES | DC50 (BRD4 short; [1]) [nM] | DC50 (BRD4 long; [2]) [nM] | DC50 (BRD4 short; [3]) [nM] | DC50 (BRD4 long; [4]) [nM]
Cc1sc2c(c1C)C(c1ccc(Cl)cc1)=N[C@@H](CC(=O)N[C@H]1C[C@@H](NC(=O)/C=C/C(=O)c3ccc(=O)n(C)c3)C1)c1nnc(C)n1-2 [Compound 243, (E)-N-((1R,3s)-3-(2-((S)-4-(4-chlorophenyl)-2,3,9-trimethyl-6H-thieno[3,2-f][1,2,4]triazolo[4,3-a][1,4]diazepin-6-yl)acetamido)cyclobutyl)-4-(1-methyl-6-oxo-1,6-dihydropyridin-3-yl)-4-oxobut-2-enamide] | 100 to 1000 | 100 to 1000 | – | –
Cc1sc2c(c1C)C(c1ccc(Cl)cc1)=N[C@@H](CC(=O)N[C@H]1C[C@H](NC(=O)/C=C/C(=O)c3ccc(=O)n(C)c3)C1)c1nnc(C)n1-2 [Compound 244, (E)-N-((1S,3r)-3-(2-((S)-4-(4-chlorophenyl)-2,3,9-trimethyl-6H-thieno[3,2-f][1,2,4]triazolo[4,3-a][1,4]diazepin-6-yl)acetamido)cyclobutyl)-4-(1-methyl-6-oxo-1,6-dihydropyridin-3-yl)-4-oxobut-2-enamide] | – | 100 to 1000 | 1000 | –
Cc1sc2c(c1C)C(c1ccc(Cl)cc1)=N[C@@H](CC(=O)N1CCN(C(=O)/C=C/C(=O)N3CCN(C)CC3)CC1)c1nnc(C)n1-2 [Compound 245, (S,E)-1-(4-(2-(4-(4-chlorophenyl)-2,3,9-trimethyl-6H-thieno[3,2-f][1,2,4]triazolo[4,3-a][1,4]diazepin-6-yl)acetyl)piperazin-1-yl)-4-(4-methylpiperazin-1-yl)but-2-ene-1,4-dione] | – | – | > 5000 | > 5000
COc1ccc(NC(=O)/C=C/C(=O)N2CCN(C(=O)C[C@@H]3N=C(c4ccc(Cl)cc4)c4c(sc(C)c4C)-n4c(C)nnc43)CC2)cc1 [Compound 246, (S,E)-4-(4-(2-(4-(4-chlorophenyl)-2,3,9-trimethyl-6H-thieno[3,2-f][1,2,4]triazolo[4,3-a][1,4]diazepin-6-yl)acetyl)piperazin-1-yl)-N-(4-methoxyphenyl)-4-oxobut-2-enamide] | 100 to 1000 | – | – | > 5000
Cc1sc2c(c1C)C(c1ccc(Cl)cc1)=N[C@@H](CC(=O)N1CCN(C(=O)/C=C/C(=O)Nc3cccn(C)c3=O)CC1)c1nnc(C)n1-2 [Compound 247, (S,E)-4-(4-(2-(4-(4-chlorophenyl)-2,3,9-trimethyl-6H-thieno[3,2-f][1,2,4]triazolo[4,3-a][1,4]diazepin-6-yl)acetyl)piperazin-1-yl)-N-(1-methyl-2-oxo-1,2-dihydropyridin-3-yl)-4-oxobut-2-enamide] | 100 to 1000 | 100 to 1000 | – | –
Cc1sc2c(c1C)C(c1ccc(Cl)cc1)=N[C@@H](CC(=O)N1CCN(C(=O)/C=C/C(=O)N3CCOCC3)CC1)c1nnc(C)n1-2 [Compound 248, (S,E)-1-(4-(2-(4-(4-chlorophenyl)-2,3,9-trimethyl-6H-thieno[3,2-f][1,2,4]triazolo[4,3-a][1,4]diazepin-6-yl)acetyl)piperazin-1-yl)-4-morpholinobut-2-ene-1,4-dione] | – | – | > 5000 | > 5000
Cc1sc2c(c1C)C(c1ccc(Cl)cc1)=N[C@@H](CC(=O)N[C@H]1C[C@@H](NC(=O)/C=C/C(=O)N3CCOCC3)C1)c1nnc(C)n1-2 [Compound 249, (E)-N-((1R,3s)-3-(2-((S)-4-(4-chlorophenyl)-2,3,9-trimethyl-6H-thieno[3,2-f][1,2,4]triazolo[4,3-a][1,4]diazepin-6-yl)acetamido)cyclobutyl)-4-morpholino-4-oxobut-2-enamide] | – | – | > 5000 | > 5000
Cc1sc2c(c1C)C(c1ccc(Cl)cc1)=N[C@@H](CC(=O)N[C@H]1C[C@H](NC(=O)/C=C/C(=O)N3CCOCC3)C1)c1nnc(C)n1-2 [Compound 250, (E)-N-((1S,3r)-3-(2-((S)-4-(4-chlorophenyl)-2,3,9-trimethyl-6H-thieno[3,2-f][1,2,4]triazolo[4,3-a][1,4]diazepin-6-yl)acetamido)cyclobutyl)-4-morpholino-4-oxobut-2-enamide] | – | – | > 5000 | > 5000

Second part, the molecule after the results:

DC50 (BRD4 short; [1]) [nM] | DC50 (BRD4 long; [2]) [nM] | DC50 (BRD4 short; [3]) [nM] | DC50 (BRD4 long; [4]) [nM] | SMILES
– | – | 10 to 100 | > 5000 | COc1ccc2c(c1)CCCN2C(=O)/C=C/C(=O)N1CCN(C(=O)C[C@@H]2N=C(c3ccc(Cl)cc3)c3c(sc(C)c3C)-n3c(C)nnc32)CC1 [Compound 251, (S,E)-1-(4-(2-(4-(4-chlorophenyl)-2,3,9-trimethyl-6H-thieno[3,2-f][1,2,4]triazolo[4,3-a][1,4]diazepin-6-yl)acetyl)piperazin-1-yl)-4-(6-methoxy-3,4-dihydroquinolin-1(2H)-yl)but-2-ene-1,4-dione]
– | – | > 5000 | > 5000 | COc1ccc2c(c1)CCN(C(=O)/C=C/C(=O)N1CCN(C(=O)C[C@@H]3N=C(c4ccc(Cl)cc4)c4c(sc(C)c4C)-n4c(C)nnc43)CC1)C2 [Compound 252, (S,E)-1-(4-(2-(4-(4-chlorophenyl)-2,3,9-trimethyl-6H-thieno[3,2-f][1,2,4]triazolo[4,3-a][1,4]diazepin-6-yl)acetyl)piperazin-1-yl)-4-(6-methoxy-3,4-dihydroisoquinolin-2(1H)-y1)but-2-ene-1,4-dione]
– | – | > 5000 | > 5000 | Cc1sc2c(c1C)C(c1ccc(Cl)cc1)=N[C@@H](CC(=O)NC1CC(NC(=O)/C=C/C(=O)N3CC4(COC4)C3)C1)c1nnc(C)n1-2 (stereo partly drawn) [Compound 253, (S,E)-N-(3-(2-(4-(4-chlorophenyl)-2,3,9-trimethyl-6H-thieno[3,2-f][1,2,4]triazolo[4,3-a][1,4]diazepin-6-yl)acetamido)cyclobutyl)-4-oxo-4-(2-oxa-6-azaspiro[3.3]heptan-6-yl)but-2-enamide]
– | – | 10 to 100 | 10 to 100 | Cc1sc2c(c1C)C(c1ccc(Cl)cc1)=N[C@@H](CC(=O)N[C@H]1C[C@@H](NC(=O)/C=C/C(=O)C(C)(C)C)C1)c1nnc(C)n1-2 [Compound 277, (E)-N-((1R,3s)-3-(2-((S)-4-(4-chlorophenyl)-2,3,9-trimethyl-6H-thieno[3,2-f][1,2,4]triazolo[4,3-a][1,4]diazepin-6-yl)acetamido)cyclobutyl)-5,5-dimethyl-4-oxohex-2-enamide]
– | – | 10 to 100 | 10 to 100 | Cc1sc2c(c1C)C(c1ccc(Cl)cc1)=N[C@@H](CC(=O)N[C@H]1C[C@H](NC(=O)/C=C/C(=O)C(C)(C)C)C1)c1nnc(C)n1-2 [Compound 278, (E)-N-((1S,3r)-3-(2-((S)-4-(4-chlorophenyl)-2,3,9-trimethyl-6H-thieno[3,2-f][1,2,4]triazolo[4,3-a][1,4]diazepin-6-yl)acetamido)cyclobutyl)-5,5-dimethyl-4-oxohex-2-enamide]
– | – | > 5000 | > 5000 | COc1ccc(/C=C/S(=O)(=O)N2CCN(C(=O)C[C@@H]3N=C(c4ccc(Cl)cc4)c4c(sc(C)c4C)-n4c(C)nnc43)CC2)cc1 [Compound 279, (S,E)-2-(4-(4-chlorophenyl)-2,3,9-trimethyl-6H-thieno[3,2-f][1,2,4]triazolo[4,3-a][1,4]diazepin-6-yl)-1-(4-((4-methoxystyryl)sulfonyl)piperazin-1-yl)ethan-1-one]
100 to 1000 | 100 to 1000 | – | – | Cc1sc2c(c1C)C(c1ccc(Cl)cc1)=N[C@@H](CC(=O)N[C@H]1C[C@H](NC(=O)/C=C/C(=O)c3ccc(Cl)cc3Cl)C1)c1nnc(C)n1-2 [Compound 281, (E)-N-((1S,3r)-3-(2-((S)-4-(4-chlorophenyl)-2,3,9-trimethyl-6H-thieno[3,2-f][1,2,4]triazolo[4,3-a][1,4]diazepin-6-yl)acetamido)cyclobutyl)-4-(2,4-dichlorophenyl)-4-oxobut-2-enamide]
